Measured values reported in patent publication US20250114336A1, “USE OF ANTI-RETROVIRAL PROTEASE INHIBITORS FOR THE TREATMENT OF AMYOTROPHIC LATERAL SCLEROSIS (ALS)” (The Regents of the University of Colorado, a body corporate, priority 2023, published 2025).
Entries after “also recorded” stand apart in the source; their conditions may differ.

Target: T1, human PEG10 (Homo sapiens, UniProt Q86TG7)
T1 construct: expressed in transfected cells; host or cells: HEK293
T1 sequence (Q86TG7 1-708): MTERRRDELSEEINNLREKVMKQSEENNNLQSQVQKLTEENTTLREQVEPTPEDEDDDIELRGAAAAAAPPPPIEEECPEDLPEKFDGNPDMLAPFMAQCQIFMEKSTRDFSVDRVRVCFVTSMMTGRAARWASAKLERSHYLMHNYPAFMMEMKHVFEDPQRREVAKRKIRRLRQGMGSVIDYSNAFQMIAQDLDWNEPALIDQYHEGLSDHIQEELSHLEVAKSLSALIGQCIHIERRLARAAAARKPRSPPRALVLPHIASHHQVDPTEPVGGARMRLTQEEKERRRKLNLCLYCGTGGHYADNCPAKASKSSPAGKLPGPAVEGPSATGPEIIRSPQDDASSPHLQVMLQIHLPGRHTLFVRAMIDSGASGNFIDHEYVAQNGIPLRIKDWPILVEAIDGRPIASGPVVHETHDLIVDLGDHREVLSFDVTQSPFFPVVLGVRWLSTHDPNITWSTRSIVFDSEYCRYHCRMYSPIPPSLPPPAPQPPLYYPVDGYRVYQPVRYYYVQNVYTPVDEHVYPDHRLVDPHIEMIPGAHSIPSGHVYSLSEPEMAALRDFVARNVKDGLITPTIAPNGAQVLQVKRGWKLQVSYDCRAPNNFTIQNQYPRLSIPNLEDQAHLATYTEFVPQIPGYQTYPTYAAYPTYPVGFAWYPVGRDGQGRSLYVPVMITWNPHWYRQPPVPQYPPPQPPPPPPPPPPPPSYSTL
Experiment: Western blot of PEG10 abundance and self-cleavage in HEK293 cells transfected with human PEG10
Assay type: cell-based
Details: HEK293 cells transfected with WT human PEG10, incubated 24 hours with increasing concentrations of drug (up to 50 uM), compared to untreated
Method: FIG. 1: Western blot of PEG10 self-cleavage testing with antiretroviral compounds. HEK293 cells were transfected with either WT or a cleavage-incompetent mutant form of human PEG10 and incubated for 24 hours with the indicated concentrations of drug. After 24 hours, cells were lysed and imaged by western blot.
FIG. 2A-D: PEG10 abundance is decreased by ritonavir, but not indinavir. a-d) Bands identified in FIG. 1 were quantified and normalized to Tubulin for a) gag-pol, b) gag, c) CA fragment, and d) CA^NTD fragment. Shown is mean+/−SEM for four representative experiments; one sample from untreated indinavir and 50 uM of indinavir and ritonavir were not collected. Statistics were measured by One-way ANOVA with multiple comparisons to untreated; statistically significant comparisons are shown with asterisks. ANOVA summary significance is shown with straight line.
Shown is mean+/−SEM for four representative experiments; one sample from untreated indinavir and 50 uM of indinavir and ritonavir were not collected. Statistics were measured by One-way ANOVA with multiple comparisons to untreated; statistically significant comparisons are shown with asterisks. ANOVA summary significance is shown with straight line.
Applicants performed an assay using western blot to assess self-cleavage of transfected PEG10 (FIG. 1) with a negative control where the PEG10 protease is mutated. […]

Compound: CC(C)c1nc(CN(C)C(=O)N[C@H](C(=O)N[C@@H](Cc2ccccc2)C[C@H](O)[C@H](Cc2ccccc2)NC(=O)OCc2cncs2)C(C)C)cs1 [ritonavir]
- PEG10 abundance (expression in the cell; bands normalized to Tubulin: gag-pol, gag, CA fragment, CA NTD fragment): decreased; also recorded: uniquely decreases PEG10 expression
- Self-cleavage of PEG10 (ratios gag-pol to gag, CA fragment to gag, CA NTD fragment to gag): modestly affected; also recorded: modest effect
